{"source": "PubChem BioAssay (NCI)", "assay_in_all_cases": "NCI anticancer screen, dose series, 48 h", "key": {"[1]": {"test_system": "MALME-3M melanoma"}, "[2]": {"test_system": "SK-OV-3 ovarian"}, "[3]": {"test_system": "RPMI-8226 leukemia"}, "[4]": {"test_system": "KM12 colon"}, "[5]": {"test_system": "786-0 renal"}, "[6]": {"test_system": "MDA-MB-435"}, "[7]": {"test_system": "SN12C renal"}, "[8]": {"test_system": "HCT-116 colon"}, "[9]": {"test_system": "OVCAR-5 ovarian"}, "[10]": {"test_system": "SF-539 CNS"}, "[11]": {"test_system": "NCI/ADR-RES ovarian"}, "[12]": {"test_system": "SF-268 CNS"}, "[13]": {"test_system": "NCI-H522 lung"}, "[14]": {"test_system": "U251 CNS"}, "[15]": {"test_system": "SW-620 colon"}, "[16]": {"test_system": "NCI-H226 lung"}, "[17]": {"test_system": "HOP-92 NSCLC"}, "[18]": {"test_system": "A549 NSCLC"}, "[19]": {"test_system": "OVCAR-8 ovarian"}, "[20]": {"test_system": "HT29 colon"}, "[21]": {"test_system": "LOX IMVI melanoma"}, "[22]": {"test_system": "SNB-19 CNS"}, "[23]": {"test_system": "CAKI-1 renal"}, "[24]": {"test_system": "SNB-75 CNS"}, "[25]": {"test_system": "UACC-62 melanoma"}, "[26]": {"test_system": "HOP-62 NSCLC"}, "[27]": {"test_system": "T-47D breast"}, "[28]": {"test_system": "PC-3 prostate"}, "[29]": {"test_system": "ACHN renal"}}, "note": "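1) Cells in 96-well plates. 2) Compound, 48 h, 5 concentrations. 3) Linear interpolation between surrounding doses. 4) Unreached endpoint = highest concentration. GI50 marks 50% less growth. Definition used: TGI = concentration required for complete inhibition of growth.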", "data": [{"smiles": "COc1cc2c3c(n(CCCN)c(=O)c2cc1OC)-c1ccc(N(C)C)cc1C3=O", "values": [{"measurement": "GI50", "setting": "[1]", "value": 9.33, "unit": "µM"}, {"measurement": "TGI", "setting": "[1]", "value": 29.9, "unit": "µM"}, {"measurement": "GI50", "setting": "[2]", "value": 21, "unit": "µM"}, {"measurement": "TGI", "setting": "[2]", "value": 42.7, "unit": "µM"}, {"measurement": "GI50", "setting": "[3]", "value": 2, "unit": "µM"}, {"measurement": "TGI", "setting": "[3]", "value": 4.68, "unit": "µM"}, {"measurement": "GI50", "setting": "[4]", "value": 2.34, "unit": "µM"}, {"measurement": "TGI", "setting": "[4]", "value": 4.85, "unit": "µM"}, {"measurement": "GI50", "setting": "[5]", "value": 5.29, "unit": "µM"}, {"measurement": "TGI", "setting": "[5]", "value": 11.8, "unit": "µM"}, {"measurement": "GI50", "setting": "[6]", "value": 22.6, "unit": "µM"}, {"measurement": "TGI", "setting": "[6]", "value": 46.3, "unit": "µM"}, {"measurement": "GI50", "setting": "[7]", "value": 16.9, "unit": "µM"}, {"measurement": "TGI", "setting": "[7]", "value": 32, "unit": "µM"}, {"measurement": "GI50", "setting": "[8]", "value": 2.42, "unit": "µM"}, {"measurement": "TGI", "setting": "[8]", "value": 6.07, "unit": "µM"}, {"measurement": "GI50", "setting": "[9]", "value": 17, "unit": "µM"}, {"measurement": "TGI", "setting": "[9]", "value": 31.4, "unit": "µM"}, {"measurement": "GI50", "setting": "[10]", "value": 1.92, "unit": "µM"}, {"measurement": "TGI", "setting": "[10]", "value": 3.66, "unit": "µM"}, {"measurement": "GI50", "setting": "[11]", "value": 13.9, "unit": "µM"}, {"measurement": "TGI", "setting": "[11]", "value": 43.2, "unit": "µM"}, {"measurement": "GI50", "setting": "[12]", "value": 16.1, "unit": "µM"}, {"measurement": "TGI", "setting": "[12]", "value": 46.1, "unit": "µM"}, {"measurement": "GI50", "setting": "[13]", "value": 17.3, "unit": "µM"}, {"measurement": "TGI", "setting": "[13]", "value": 38.1, "unit": "µM"}, {"measurement": "GI50", "setting": "[14]", "value": 16.5, "unit": "µM"}, {"measurement": "TGI", "setting": "[14]", "value": 31.1, "unit": "µM"}, {"measurement": "GI50", "setting": "[15]", "value": 1.95, "unit": "µM"}, {"measurement": "TGI", "setting": "[15]", "value": 3.76, "unit": "µM"}, {"measurement": "GI50", "setting": "[16]", "value": 23.9, "unit": "µM"}, {"measurement": "TGI", "setting": "[16]", "value": 49.5, "unit": "µM"}, {"measurement": "GI50", "setting": "[17]", "value": 6.8, "unit": "µM"}, {"measurement": "TGI", "setting": "[17]", "value": 22.8, "unit": "µM"}, {"measurement": "GI50", "setting": "[18]", "value": 18, "unit": "µM"}, {"measurement": "TGI", "setting": "[18]", "value": 52, "unit": "µM"}, {"measurement": "GI50", "setting": "[19]", "value": 7.22, "unit": "µM"}, {"measurement": "TGI", "setting": "[19]", "value": 33.7, "unit": "µM"}, {"measurement": "GI50", "setting": "[20]", "value": 1.54, "unit": "µM"}, {"measurement": "TGI", "setting": "[20]", "value": 2.94, "unit": "µM"}, {"measurement": "GI50", "setting": "[21]", "value": 2.05, "unit": "µM"}, {"measurement": "TGI", "setting": "[21]", "value": 4.45, "unit": "µM"}, {"measurement": "GI50", "setting": "[22]", "value": 16.9, "unit": "µM"}, {"measurement": "TGI", "setting": "[22]", "value": 33.7, "unit": "µM"}, {"measurement": "GI50", "setting": "[23]", "value": 22.7, "unit": "µM"}, {"measurement": "TGI", "setting": "[23]", "value": 47.5, "unit": "µM"}, {"measurement": "GI50", "setting": "[24]", "value": 22.5, "unit": "µM"}, {"measurement": "TGI", "setting": "[24]", "value": 46, "unit": "µM"}, {"measurement": "GI50", "setting": "[25]", "value": 21.6, "unit": "µM"}, {"measurement": "TGI", "setting": "[25]", "value": 42.2, "unit": "µM"}, {"measurement": "GI50", "setting": "[26]", "value": 16.8, "unit": "µM"}, {"measurement": "TGI", "setting": "[26]", "value": 31.9, "unit": "µM"}, {"measurement": "GI50", "setting": "[27]", "value": 20, "unit": "µM"}, {"measurement": "TGI", "setting": "[27]", "value": 41, "unit": "µM"}, {"measurement": "GI50", "setting": "[28]", "value": 1.69, "unit": "µM"}, {"measurement": "TGI", "setting": "[28]", "value": 3.14, "unit": "µM"}, {"measurement": "GI50", "setting": "[29]", "value": 17.4, "unit": "µM"}, {"measurement": "TGI", "setting": "[29]", "value": 31.5, "unit": "µM"}]}]}
